pIC50: −log10 of the molar value. Active and inactive are the calls of the source.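 Rule for the calls: active = maximal inhibition of USP17 at or above 30% in the confirmation dose-response, a value not among the printed readouts; inactive = the rest.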

A word on the pIC50: it is the negative decadic logarithm of the IC50, by convention in mol/L. The term IC50 denotes the concentration that inhibits the measured activity by half.

The assay deals with Ubiquitin carboxyl-terminal hydrolase 17-like protein 5 (Homo sapiens) (UniProt A8MUK1). The assay is described as follows: ubiquitin-specific protease 17 DUB inhibitors, concentration-effect assay, cell-free, verification of initial screening actives (AID 1645864). As to conditions: purified USP17, ubiquitin-rhodamine cleavage fluorescence, 3 h.
Ubiquitin carboxyl-terminal hydrolase 17-like protein 5 (Homo sapiens), sequence (A8MUK1 whole entry, looked up): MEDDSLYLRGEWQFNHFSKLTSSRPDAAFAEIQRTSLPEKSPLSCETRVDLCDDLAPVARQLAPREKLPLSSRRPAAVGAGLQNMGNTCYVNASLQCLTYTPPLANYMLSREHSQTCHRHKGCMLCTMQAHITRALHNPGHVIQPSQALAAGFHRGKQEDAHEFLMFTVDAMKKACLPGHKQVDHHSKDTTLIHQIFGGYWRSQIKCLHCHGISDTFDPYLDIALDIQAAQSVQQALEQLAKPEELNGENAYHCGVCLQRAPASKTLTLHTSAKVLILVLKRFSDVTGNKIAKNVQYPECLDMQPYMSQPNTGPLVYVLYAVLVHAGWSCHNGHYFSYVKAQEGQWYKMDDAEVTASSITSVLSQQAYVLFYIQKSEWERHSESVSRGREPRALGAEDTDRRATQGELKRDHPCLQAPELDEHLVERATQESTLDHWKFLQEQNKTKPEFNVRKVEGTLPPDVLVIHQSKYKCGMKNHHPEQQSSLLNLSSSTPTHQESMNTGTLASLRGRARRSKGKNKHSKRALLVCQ
As to `O=C(NC1(O)C(=O)c2ccccc2C1=O)c1cccc2c1-c1ccccc1C2=O`, the pIC50 is 4.95.
As for `COC(=O)c1cc(C)sc1NC(=O)c1cccc(OC)c1OC`, the IC50 was > 50 µM (inactive).
On the same count and under the same terms, in the case of `Cc1ccc(C(=O)Nc2cc3c4c(c2)CC(=O)N4CCC3)cc1C` it was > 50 µM (inactive); in that of `CC(C)c1nc2sc3c(N(CCO)CCO)ncnc3c2c2c1COC(C)(C)C2`, > 50 µM (inactive); in that of `COc1cccc(NC(=O)CCc2c(C)nn(-c3cc(N4CCCCC4)ncn3)c2C)c1`, > 50 µM (inactive).
Turning to `O=C(CNC(=O)c1cc2ccccc2o1)Nc1ccc2c(c1)OCCO2`, the pIC50 is 4.34.
Still for that read-out and setting: in the case of `COc1ccc(C(=O)Nc2sc3c(c2C(=O)NCc2cccnc2)CCCC3)cc1` it was 5.21.
In the case of `Cc1csc2ncc(C(=O)N3CCN(c4ccccc4F)CC3)c(=O)n12`, the IC50 is > 50 µM (inactive).

The values are drawn from PubChem BioAssay AID1645864 (Buhrlage Lab, Dana-Farber Cancer Institute and Novartis …, 2021).
